These results are taken from patent US5959113A, “Imidazol derivatives” (Hoffmann-La Roche Inc., priority 1994, dated 1999).

The term IC50 denotes the point on the concentration scale where inhibition reaches its midpoint.

Assay [1] concerns the target cAMP-dependent protein kinase (PKA). Nature of the assay: Inhibition of cAMP-dependent protein kinase (PKA). Format: biochemical. The following applies: partially purified PKA from hog brain, histone H1, ATP 10 μM, 2 min at 32 °C; read-out: IC50 Isolated enzyme PKA. How it is done:
Inhibition of cAMP-dependent protein kinase (PKA)
The activity of PKA is measured by measuring the transfer of ^32 P-labelled phosphate from ^32 P-γ-ATP (10 μM) to the substrate histone H1 (333 μg/ml) using partially purified PKA from hog brain (DEAE chromatography according to U. Kikkawa et al., Methods Enzymol. 99, 288, 1983). PKA is activated by 2 μM of cAMP in Tris HCl buffer (20 mM, pH 7.4). The compounds are tested in DMSO/buffer at a concentration of 0.001-100 μM. The test is started by adding the enzyme, takes 2 minutes at 32° C. and is terminated by adding 20% trichloroacetic acid (containing 1% SDS and 1% sodium pyrophosphate). The precipitated protein, which contains the radiolabelled histone, is separated from excess ATP by filtration through a nitrocellulose membrane filter. The radioactivity on the filter is determined in a scintillation counter. The inhibitory activity of the test compounds is expressed as the micromolar concentration which is required for 50% inhibition (IC50 [μM]).
(§1) The inhibition of selected protein kinases in vitro and the inhibition of cell proliferation in HaCaT-cells by these compounds are set forth in the following Table.

A further assay has as its target T1, p56^Ick tyrosine kinase (Homo sapiens, UniProt P06239).
T1 construct: made in house; host or cells: E. coli
Nature of the assay: Inhibition of p56^Ick tyrosine kinase. It is filed as biochemical. The following applies: human recombinant p56lck, 30 °C, 30 min, ATP 10 μM, RR-src peptide 0.75 mM; read-out: IC50 Isolated enzyme p56^lck. How it is done: Inhibition of p56^Ick tyrosine kinase
The activity of p56^Ick tyrosine kinase is determined by measuring the transfer of ^32 P-labelled phosphate from ^32 P-γ-ATP (10 μM) to the substrate RR-src peptide (0.75 mM). Human recombinant p56^Ick (expressed in E. coli) is used as the enzyme.
It is purified from the soluble fraction by means of a monoclonal antibody column and stored at -75° C. The compounds are tested in 10% DMSO in a concentration of 0.001-100 μM, The incubation is carried out at 30° C. for a period of 30 minutes in HEPES buffer (50 mM, pH 6.9) which contains manganese chloride (11 mM) and 0.5% BSA. The test is started by adding the enzyme and terminated by adding ice-cold KH2 PO4 (1M, pH 3.0). After centrifugation the radiolabelled peptide is separated from excess ATP in the supernatant by reversed phase HPLC. The peptide fraction is collected and the radioactivity is determined in a standard β- counter or on-line with a radiometer (Berthold). The inhibitory activity of the test compound is expressed as the micromolar concentration which is required for 50% inhibition (IC50 [μM]).
as §1

Assay [2] concerns the target T2, EGF-receptor tyrosine kinase (Homo sapiens, UniProt P00533).
T2 construct: A membrane fraction from human A431 cells is used as the enzyme; endogenous in cells; host or cells: A431 cells, membrane fraction (Thom et al., Biochem. J. 168, 187 (1977))
Put plainly: Inhibition of EGF-receptor Tyrosine Kinase. It is filed as biochemical. Particulars: EGF-R from A431 cell membranes, 30 °C, 30 min, ATP 10 μM, RR-src peptide 0.75 mM; read-out: IC50 Isolated enzyme EGF-R. As for the experimental part:
Inhibition of EGF-receptor Tyrosine Kinase
The activity of EGF-receptor tyrosine kinase is determined by measuring the transfer of ^32 P-labelled phosphate from ^32 P-γ-ATP (10 μM) to the substrate RR-scr peptide* (0.75 mM). A membrane fraction from human A431 cells is used as the enzyme. It is isolated according to Thom et al., Biochem. J. 168, 187 (1977) and stored at -75° C. (4-6 mg protein/ml). The compounds are tested in 10% DMSO in a concentration of 0.001-100 μM. The incubation is carried out at 30° C. for a period of 30 minutes in Tris buffer (25 mM, pH 7.4) which contains magnesium acetate (30 mM), sodium vanadate (0.5 mM), 0.5% BSA and 0.05% Triton X-100. The membranes are pre-incubated with 2 μM of EGF at 4° C. for 90 minutes. The test is started by adding the enzyme (2 μg of membrane protein) and terminated by adding ice-cold KH2 PO4 (1M, pH 3.0). After centrifugation the labelled peptide is separated from excess ATP in the supernatant by reversed phase HPLC. The peptide fraction is collected and the radioactivity is measured in a standard β-counter or on-line with a radiometer (Berthold). The inibitory activity of the test compound is expressed as the mikromolar concentration which is required for 50% inhibition (IC50 [μM]).
*RR-src peptide=[Arg-Arg-Leu-Ile-Glu-Asp-Ala-Glu-Tyr-Ala-Ala-Arg-Gly]
as §1

The test system of another assay is HaCaT cells. Put plainly: Inhibition of HaCaT cell proliferation. Particulars: Homo sapiens, [3H]-thymidine incorporation, 48 h at 37 °C. It is filed as cell-based. How it is done: Inhibition of HaCaT cell proliferation
HaCaT is a spontaneous immortalized human keratinoycte cell line (Boukamp et al. 1988) which has been used many times as a model system for hyperproliferative keratinoyctes. The incorporation of [^3 H]-thymidine was used to quantify the growing cells in the S phase of the cell cycle. The cells were cultivated with a 3:1 mixture of DMEM/F12 medium which had been supplemented with 5% FCS, EGF (10 μg/l), hydrocortisone (400 μg/l), cholera toxin (8.5 μg/l), insulin (5 μg/l), L-glutamine (2 mM) and penicillin/streptomycin. 200 μl of medium were placed in microtitre plates such that each sample contained 5000 cells. The test compounds were added in serial dilutions in the range of 1×10^-8 M to […] at the beginning of the cultivation. The cells were incubated at 37° C. for 48 hours. For the last 6 hours [^3 H]-thymidine was added ([…]). After digesting the cells with trypsin the amount of incorporated radioactivity was quantified with a liquid scintillation counter.
as §1
Background: Incorporation of labelled thymidine or its analogues reports DNA synthesis.

The target of the next assay is protein kinase C (PKC). Put plainly: Inhibition of protein kinase C (PKC). Format: biochemical. The following applies: partially purified PKC from hog brain, histone H1, ATP 10 μM, 2 min at 32 °C; read-out: IC50 Isolated enzyme PCK. As for the experimental part: Inhibition of protein kinase C (PKC)
The activity of PKC is measured by measuring the transfer of ^32 P-labelled phosphate from ^32 P-γ-ATP (10 μM) to the substrate histone H1 (200 μg/ml) using partially purified PKC from hog brain (DEAE chromatography according to U. Kikkawa et al., Methods Enzymol. 99, 288, 1983). PKC is activated by phospholipid vesicle prepared by sonicating a mixture of 0.05 ml of phosphatidylserine (10 mg/ml) and 0.005 ml of diolein (10 mg/ml) in 5 ml of Tris HCl buffer (20 mM, pH 7.4). The compounds are tested in DMSO/buffer at a concentration of 0.001-100 μM. The test is started by adding the enzyme, takes 2 minutes at 32° C. and is terminated by adding 20% trichloroacetic acid (containing 1% SDS and 1% sodium pyrophosphate). The precipitated protein with the labelled histone is separated from excess ATP by filtration over a nitrocellulose membrane filter. The radioactivity on the filter is measured in a scintillation counter. The inhibitory activity of the test compound is expressed as the micromolar concentration which is required for 50% inhibition (IC50 [μM]).
as §1

Another assay concerns mouse hair follicles. Put plainly: Stimulation of cell proliferation in cultured mouse hair follicles. It is filed as cell-based. How it is done: Stimulation of cell proliferation in cultured mouse hair follicles
Mouse hair follicles are isolated and cultured according to the method described by Buhl et al., J. Invest. Dermatol. 92, 315 (1989). Whisker parts are removed from CD-1 mice aged 4 days and the hair follicles are carefully separated from surrounding tissue under the microscope. Hair follicles are cultured in M199 medium which contains 20% FBS and the cell proliferation is determined from the incorporation of [^3 H]-thymidinein DNA. The test compounds are dissolved in DMSO and added in serial dilutions in the range of 1×10^-8 to 1×10^-6 M at the beginning of the cultivation. After 1 day 5 μCi/ml of [^3 H]-thymidine are added to the culture medium and the follicles are incubated for a further 3 days. The hair follicles are then washed with phosphate-buffered saline solution in order to remove non-incorporated radioactivity and the DNA is solubilized by incubation with alkali overnight. The radioactivity incorporated into the follicular DNA is then measured using a liquid scintillation counter.

The structures appear in SMILES notation. Bounds are passed on as bounds.

T2 sequence (P00533 25-1210): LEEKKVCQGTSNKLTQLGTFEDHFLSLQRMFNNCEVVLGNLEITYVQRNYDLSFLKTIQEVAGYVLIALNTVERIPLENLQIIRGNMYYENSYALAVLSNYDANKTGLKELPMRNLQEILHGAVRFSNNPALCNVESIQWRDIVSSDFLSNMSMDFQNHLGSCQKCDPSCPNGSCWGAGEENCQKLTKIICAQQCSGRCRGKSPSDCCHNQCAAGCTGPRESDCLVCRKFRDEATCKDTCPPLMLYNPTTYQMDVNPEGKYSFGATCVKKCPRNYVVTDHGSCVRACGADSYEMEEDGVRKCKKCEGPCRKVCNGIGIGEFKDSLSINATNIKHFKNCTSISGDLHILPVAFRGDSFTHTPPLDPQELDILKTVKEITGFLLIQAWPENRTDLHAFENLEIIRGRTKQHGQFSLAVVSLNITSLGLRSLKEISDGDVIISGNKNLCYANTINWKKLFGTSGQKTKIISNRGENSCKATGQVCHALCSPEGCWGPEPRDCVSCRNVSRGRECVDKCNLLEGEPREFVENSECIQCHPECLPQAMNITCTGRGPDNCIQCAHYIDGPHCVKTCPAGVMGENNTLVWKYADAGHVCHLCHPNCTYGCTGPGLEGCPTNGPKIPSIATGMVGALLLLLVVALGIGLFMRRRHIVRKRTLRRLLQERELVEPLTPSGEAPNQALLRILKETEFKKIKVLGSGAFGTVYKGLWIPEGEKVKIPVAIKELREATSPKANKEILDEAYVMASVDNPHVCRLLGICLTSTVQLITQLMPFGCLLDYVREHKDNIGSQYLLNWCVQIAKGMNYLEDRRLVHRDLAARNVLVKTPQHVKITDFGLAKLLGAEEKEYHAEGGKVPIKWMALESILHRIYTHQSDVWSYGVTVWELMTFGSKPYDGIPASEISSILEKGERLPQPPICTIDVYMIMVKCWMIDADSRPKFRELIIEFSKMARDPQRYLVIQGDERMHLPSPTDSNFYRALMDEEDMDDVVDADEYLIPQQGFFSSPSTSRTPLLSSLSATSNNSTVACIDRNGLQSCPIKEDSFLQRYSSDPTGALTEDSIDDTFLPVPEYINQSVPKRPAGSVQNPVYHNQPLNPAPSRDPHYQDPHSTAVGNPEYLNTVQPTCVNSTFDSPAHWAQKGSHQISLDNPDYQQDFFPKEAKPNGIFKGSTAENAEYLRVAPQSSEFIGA
T1 sequence (P06239 whole entry): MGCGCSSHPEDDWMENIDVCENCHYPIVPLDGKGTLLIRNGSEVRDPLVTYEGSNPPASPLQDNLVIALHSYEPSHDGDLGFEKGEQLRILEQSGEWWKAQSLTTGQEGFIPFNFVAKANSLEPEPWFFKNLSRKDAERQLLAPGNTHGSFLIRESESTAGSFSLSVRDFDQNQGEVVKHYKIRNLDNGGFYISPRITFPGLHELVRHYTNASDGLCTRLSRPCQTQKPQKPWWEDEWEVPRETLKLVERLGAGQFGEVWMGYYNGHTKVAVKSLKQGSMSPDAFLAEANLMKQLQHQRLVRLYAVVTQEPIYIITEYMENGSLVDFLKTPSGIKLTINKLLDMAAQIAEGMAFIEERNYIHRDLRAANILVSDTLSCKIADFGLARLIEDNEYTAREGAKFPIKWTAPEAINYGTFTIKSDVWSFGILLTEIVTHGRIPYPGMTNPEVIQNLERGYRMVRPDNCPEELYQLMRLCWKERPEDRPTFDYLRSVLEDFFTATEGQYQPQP

With `COC(=O)c1c(C)cc(C)c(-c2nc(-c3ccncc3)c(-c3ccc(Cl)cc3)[nH]2)c1C` [Example 9, methyl 3-[5-(4-chlorophenyl)-4-pyridin-4-yl-imidazol-2-yl]2,4,6-trimethylbenzoate], the half-inhibitory concentration (IC50) turned out to be 6 µM in assay [1]; 3.8 µM at p56^Ick tyrosine kinase; 140 nM in assay [2]; 230 nM with HaCaT cells; 80 µM on protein kinase C (PKC).

For `Nc1cc(N2CCCCC2)nc(N)[n+]1[O-]` [minoxidil, reference compound], the EC50 in the assay with mouse hair follicles ([3H]-thymidine incorporation, CD-1 mouse whisker follicles, read-out: concentration which resulted in a half-maximum stimulation of the DNA synthesis (EC50 value)) is 200 µM. Moreover, the “stimulation of hair follicle DNA synthesis (compared with controls)” value in the assay on mouse hair follicles (concentration not given, comparison agent, 5760 min) was 160±15%.

On to `Cc1cccc(-c2[nH]c(-c3c(C)cc(C)cc3C)nc2-c2ccncc2)c1` [Example 4, 4-[5-(3-methylphenyl)-2-(2,4,6-trimethylphenyl)imidazol-4-yl]pyridine], for which the IC50 in assay [1] is 190 µM; on p56^Ick tyrosine kinase, 6 µM; in assay [2], 800 nM; in the assay with HaCaT cells, 2000 nM; at protein kinase C (PKC), over 100 µM.

Consider `Cc1cc(C)c(-c2nc(-c3ccncc3)c(-c3ccc(Cl)cc3)[nH]2)c(C)c1CN(C)C` [Example 12, [3-[5-(4-chlorophenyl)-4-pyridin-4-yl-imidazol-2-yl]-2,4,6,-trimethylbenzyl]dimethylamine], for which the half-maximal inhibitory concentration (IC50) came out at 5 µM in assay [1]; 1.65 µM on p56^Ick tyrosine kinase; 50 nM in assay [2]; 570 nM in the assay with HaCaT cells; 7 µM at protein kinase C (PKC).

Consider `CC(C)c1cccc(C(C)C)c1-c1nc(-c2ccncc2)c(-c2ccc(Cl)cc2)[nH]1` [Example 7, 4-[5-(4-chlorophenyl)-2-(2,6-diisopropylphenyl)imidazol-4-yl]pyridine], for which the concentration for half-maximal inhibition (IC50) in assay [1] was found to be 0.47 µM; at p56^Ick tyrosine kinase, 3.1 µM; in assay [2], 130 nM; with HaCaT cells it was 3500 nM; on protein kinase C (PKC), 100 µM.

As for `Cc1cc(C)c(-c2nc(-c3ccncc3)c(-c3ccc(Cl)cc3)[nH]2)c(C)c1CN1CCOCC1` [Example 11, 4-[3-[5-(4-chlorophenyl)-4-pyridin-4-yl-imidazol-2-yl]-2,4,6,-trimethylbenzyl]morpholine], the IC50 in assay [1] was 43 µM; at p56^Ick tyrosine kinase, 5.1 µM; in assay [2] it was 260 nM; in the assay on HaCaT cells it was 100 nM; on protein kinase C (PKC) it was over 100 µM.

`Cc1cc(C)c(-c2nc(-c3ccncc3)c(-c3ccc(Cl)cc3)[nH]2)c(C)c1CN1CCN(C)CC1` [Example 13, 1-[3-[5-(4-chlorophenyl)-4-pyridin-4-yl-imidazol-2-yl]-2,4,6,-trimethylbenzyl]-4-methylpiperazine]: the 50% inhibitory concentration (IC50) was determined as 1.5 µM in assay [1]; 1.8 µM at p56^Ick tyrosine kinase; 50 nM in assay [2]; 100 nM in the assay with HaCaT cells; 37 µM at protein kinase C (PKC).

As to `Cc1cc(C)c(-c2nc(-c3ccncc3)c(-c3ccc(Cl)cc3)[nH]2)c(C)c1O` [Example 16, 3-[5-(4-chlorophenyl)-4-pyridin-4-yl-imidazol-2-yl]-2,4,6,-trimethylphenol], the concentration for half-maximal inhibition (IC50) at p56^Ick tyrosine kinase was found to be 2.2 µM; in assay [2] it was 310 nM; in the assay on HaCaT cells, 800 nM.

As for `Nc1cccc(Cl)c1-c1nc(-c2ccncc2)c(-c2ccc(Cl)cc2)[nH]1` [Example 18, 3-chloro-2-[5-(4-chlorophenyl)-4-pyridin-4-yl-imidazol-2-yl]phenylamine], the IC50 in assay [1] came to 1.8 µM; on p56^Ick tyrosine kinase, 14 µM; in assay [2], 290 nM; with HaCaT cells, 2000 nM; on protein kinase C (PKC) it was 23 µM.

`Cc1cc(C)c([N+](=O)[O-])c(C)c1-c1nc(-c2ccncc2)c(-c2ccc(Cl)cc2)[nH]1` [Example 15, 4-[5-(4-chlorophenyl)-2-(2,4,6-trimethyl-3-nitrophenyl)-imidazol-4-yl]pyridine]: the half-inhibitory concentration (IC50) is 4.95 µM at p56^Ick tyrosine kinase, 780 nM in assay [2] and 670 nM in the assay on HaCaT cells.
